These results are taken from US20060057696A1, “Sugar chain synthases” (priority 2002, published 2006).

Common to all, as to format: biochemical
The target in test [1] is T1, PA-mST8Sia VI (mouse ST8Sia VI) (Mus musculus, UniProt Q8K4T1).
T1 construct: amino acids 26-398 in the case of mouse ST8Sia VI; signal peptide of mouse immunoglobulin IgM (N); made in house; host or cells: COS-7 cells, transient expression of pcDSA-mST8Sia VI; protein recovered from medium on IgG-Sepharose
T1 sequence (Q8K4T1 26-398): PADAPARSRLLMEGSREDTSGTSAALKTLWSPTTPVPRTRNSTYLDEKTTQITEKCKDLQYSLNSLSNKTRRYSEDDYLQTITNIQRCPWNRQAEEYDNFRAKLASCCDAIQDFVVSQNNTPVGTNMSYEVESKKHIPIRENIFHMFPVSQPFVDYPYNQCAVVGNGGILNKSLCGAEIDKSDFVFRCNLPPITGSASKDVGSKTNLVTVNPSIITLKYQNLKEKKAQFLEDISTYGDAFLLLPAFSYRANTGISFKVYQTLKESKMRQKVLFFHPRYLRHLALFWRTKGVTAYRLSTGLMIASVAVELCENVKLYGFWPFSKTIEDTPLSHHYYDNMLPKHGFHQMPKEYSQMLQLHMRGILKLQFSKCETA
The experiment in a line: Sialyltransferase activity of PA-mST8Sia VI toward acceptor substrates. To be noted: for Relative rate (%) Mouse ST8SiaVI: incorporation with Fetuin taken as 100, substrate 0.5 mg/ml glycolipids, 1 mg/ml glycoproteins, monosaccharides and oligosaccharides. The method, then: Using each expression vector and lipofectamine (Invitrogen), transient expression was carried out in COS-7 cells (Kojima, N. et al. (1995) FEBS Lett. 360, 1-4). The proteins of the present invention secreted from the cells into which each expression vector had been introduced were named as PA-mST8Sia VI (mouse) and PA-hST8Sia VI (human). PA-mST8Sia VI and PA-hST8Sia VI were adsorbed to IgG-Sepharose (Amersham Pharmacia Biotech), and were then recovered from medium. Sialyltransferase activity was measured as follows according to the method of Lee et al. (Lee, Y.-C. et al. (1999) J. Biol. Chem. 274, 11958-11967). A reaction solution (10 μl) containing 50 mM MES buffer (pH 6.0), 1 mM MgCl2, 1 mM CaCl2, 0.5% Triton CF-54, 100 μM CMP-[^14C]-NeuAc, a glycoconjugate (which was added at 0.5 mg/ml in the case of glycolipids, and at 1 mg/ml in the case of glycoproteins or oligosaccharides), and a PA-mST8Sia VI or PA-hST8Sia VI suspension, was incubated at 37° C. for 3 to 20 hours. Thereafter, in the case of glycolipids, the reaction product was purified with a C-18 column (Sep-Pak Vac 100 mg; Waters) and the purified product was used as a sample, and in the case of oligosaccharides or glycoproteins, the reaction product was directly used as a sample. Thus, the obtained samples were subjected to analysis. In the case of oligosaccharides or glycolipids, the sample was spotted on a silica gel 60 HPTLC plate (Merck), and was then developed with a developing solvent consisting of ethanol:pyridine:n-butanol:water:acetic acid=100:10:10:30:3 (for oligosaccharides), a developing solvent consisting of 1-propanol:ammonia water:water=6:1:2.5 (for oligosaccharides), or a developing solvent consisting of chloroform:methanol: 0.02% CaCl2=55:45:10 (for glycolipids). In the case of glycoproteins, analysis was carried out by SDS-polyacrylamide gel electrophoresis. The obtained radioactivities were visualized with a BAS2000 radio image analyzer (Fuji Film) and then quantified.

Another test deals with T2, human ST6Gal I (Homo sapiens, UniProt P15907).
T2 sequence (P15907 1-406): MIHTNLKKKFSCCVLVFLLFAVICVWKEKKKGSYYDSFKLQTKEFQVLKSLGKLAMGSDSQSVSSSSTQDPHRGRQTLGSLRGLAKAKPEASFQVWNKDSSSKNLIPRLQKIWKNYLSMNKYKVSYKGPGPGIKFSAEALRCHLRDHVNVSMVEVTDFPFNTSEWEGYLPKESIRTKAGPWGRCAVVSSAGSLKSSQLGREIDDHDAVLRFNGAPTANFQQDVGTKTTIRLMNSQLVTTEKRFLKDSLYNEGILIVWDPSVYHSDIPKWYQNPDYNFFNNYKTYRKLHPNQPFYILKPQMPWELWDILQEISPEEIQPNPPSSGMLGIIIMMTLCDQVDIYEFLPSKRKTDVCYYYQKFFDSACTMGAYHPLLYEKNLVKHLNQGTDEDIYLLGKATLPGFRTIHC
The experiment in a line: Sialyltransferase activity of human ST6Gal I toward acceptor substrates (comparison). To be noted: incorporation with Galβ1,4GlcNAc taken as 100; 0.5 mg/ml glycolipids, 1 mg/ml glycoproteins and oligosaccharides. The method, then:
(§1) Using each expression vector and lipofectamine (Invitrogen), transient expression was carried out in COS-7 cells (Kojima, N. et al. (1995) FEBS Lett. 360, 1-4). The proteins of the present invention secreted from the cells into which each expression vector had been introduced were named as PA-hST6Gal II (human) and PA-mST6Gal II (mouse). PA-hST6Gal II and PA-mST6Gal II were adsorbed to IgG-Sepharose (Amersham Pharmacia Biotech), and were then recovered from medium. Sialyltransferase activity was measured as follows according to the method of Lee et al. (Lee, Y.-C. et al. (1999) J Biol. Chem. 274, 11958-11967). A reaction mixture (10 μl) containing 50 mM MES buffer (pH 6.0), 1 mM MgCl2, 1 mM CaCl2, 0.5% Triton CF-54, 100 μM CMP-[^14C]-NeuAc, a substrate sugar chain (which was added at 0.5 mg/ml in the case of glycolipids, and at 1 mg/ml in the case of glycoproteins or oligosaccharides), and a PA-hST6Gal II or PA-mST6Gal II suspension, was incubated at 37° C. for 3 to 20 hours. Thereafter, in the case of glycolipids, the reaction product was purified with a C-18 column (Sep-Pak Vac 100 mg; Waters) and the purified product was used as a sample. In the case of oligosaccharides or glycoproteins, the reaction product was directly used as a sample. Thus, the obtained sample was subjected to analysis. In the case of oligosaccharides or glycolipids, the sample was spotted on a silica gel 60 HPTLC plate (Merck), and it was then developed with a developing solvent consisting of 1-propanol:ammonia water:water=6:1:2.5 (for oligosaccharides), or a developing solvent consisting of chloroform:methanol: 0.02% CaCl2=55:45:10 (for glycolipids). In the case of glycoproteins, analysis was carried out by SDS-polyacrylamide gel electrophoresis. The obtained radioactivities were visualized with a BAS2000 radio image analyzer (Fuji Film) and then quantified.
In contrast, there were no glycolipids, which could be substrates of both the enzymes, as far as the inventors have examined. The activity of human ST6Gal I on oligosaccharides was also examined for comparison. […] (FIG. 10).

Test [2] addresses T3, PA-mST6Gal II (mouse ST6Gal II) (Mus musculus, UniProt Q76K27, R48S).
T3 construct: amino acids 31-524 in the case of mouse ST6Gal II; signal peptide of mouse immunoglobulin IgM (N); made in house; host or cells: COS-7 cells, transient expression of pcDSA-mST6Gal II; protein recovered from medium on IgG-Sepharose
T3 sequence (Q76K27 31-524 R48S): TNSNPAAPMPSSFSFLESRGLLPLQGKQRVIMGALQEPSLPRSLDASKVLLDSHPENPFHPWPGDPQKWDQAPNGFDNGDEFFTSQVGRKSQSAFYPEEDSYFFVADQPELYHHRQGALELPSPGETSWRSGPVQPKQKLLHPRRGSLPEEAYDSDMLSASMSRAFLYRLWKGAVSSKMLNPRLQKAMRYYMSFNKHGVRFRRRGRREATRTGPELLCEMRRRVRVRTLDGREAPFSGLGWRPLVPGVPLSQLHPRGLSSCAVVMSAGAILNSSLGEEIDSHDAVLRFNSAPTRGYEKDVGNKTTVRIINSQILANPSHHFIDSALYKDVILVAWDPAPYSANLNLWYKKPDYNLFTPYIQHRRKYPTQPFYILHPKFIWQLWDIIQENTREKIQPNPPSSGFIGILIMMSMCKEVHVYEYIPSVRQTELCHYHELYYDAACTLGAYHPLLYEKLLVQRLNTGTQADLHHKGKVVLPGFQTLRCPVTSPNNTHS
The experiment in a line: Sialyltransferase activity of PA-mST6Gal II toward acceptor substrates. To be noted: PA-mST6Gal II; incorporation with Galβ1,4GlcNAc taken as 100; 0.5 mg/ml glycolipids, 1 mg/ml glycoproteins and oligosaccharides. The method, then:
as §1

Test [3] deals with T4, PA-hST6Gal II (human ST6Gal II) (Homo sapiens, UniProt Q96JF0).
T4 construct: amino acids 33-529 in the case of human ST6Gal II; signal peptide of mouse immunoglobulin IgM (N); made in house; host or cells: COS-7 cells, transient expression of pcDSA-hST6Gal II; protein recovered from medium on IgG-Sepharose
T4 sequence (Q96JF0 33-529): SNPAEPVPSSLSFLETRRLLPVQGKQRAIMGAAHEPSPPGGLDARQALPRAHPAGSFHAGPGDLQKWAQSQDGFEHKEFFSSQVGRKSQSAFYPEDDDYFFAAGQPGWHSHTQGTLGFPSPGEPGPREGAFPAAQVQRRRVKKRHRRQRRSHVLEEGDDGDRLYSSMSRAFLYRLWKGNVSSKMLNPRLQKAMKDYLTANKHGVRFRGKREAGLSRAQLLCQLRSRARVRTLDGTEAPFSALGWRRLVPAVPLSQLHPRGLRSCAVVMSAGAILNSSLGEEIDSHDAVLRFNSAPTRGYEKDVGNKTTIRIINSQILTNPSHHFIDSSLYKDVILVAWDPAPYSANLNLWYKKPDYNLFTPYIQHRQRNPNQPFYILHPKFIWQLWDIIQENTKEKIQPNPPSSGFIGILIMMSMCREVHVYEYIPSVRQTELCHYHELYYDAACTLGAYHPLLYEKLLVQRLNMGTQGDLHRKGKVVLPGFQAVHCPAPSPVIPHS
The experiment in a line: Sialyltransferase activity of PA-hST6Gal II toward acceptor substrates. The following applies: PA-hST6Gal II; incorporation with Galβ1,4GlcNAc taken as 100; 0.5 mg/ml glycolipids, 1 mg/ml glycoproteins and oligosaccharides. As to the method:
as §1

With `CC(=O)NC1C(O)OC(CO)C(OC2OC(CO)C(O)C(OC3(C(=O)O)CC(O)C(NC(C)=O)C(C(O)C(O)CO)O3)C2O)C1O` (stereo not drawn) [3′-Sialyl-N-acetyllactosamine, NeuAcα2,3Galβ1,4GlcNAc], in test [1], the “Relative rate (%) Mouse ST8SiaVI” value is recorded as 411%.
Consider `CC(=O)N[C@H]1[C@H]([C@H](O)[C@H](O)CO)O[C@@](O[C@H]2[C@@H](O)[C@@H](CO)OC(O)[C@@H]2O)(C(=O)O)C[C@@H]1O` (stereo partly drawn) [3′-Sialylgalactose, NeuAcα2,3Gal], for which, in test [1], the “Relative rate (%) Mouse ST8SiaVI” value is 13.9%.
As to `CC(=O)N[C@@H]1[C@@H](O)[C@H](O[C@@H]2O[C@H](CO[C@]3(C(=O)O)C[C@H](O)[C@@H](NC(C)=O)[C@H]([C@H](O)[C@H](O)CO)O3)[C@H](O)[C@H](O)[C@H]2O)[C@@H](CO)O[C@H]1O` [6′-Sialyl-N-acetyllactosamine, NeuAcα2,6Galβ1,4GlcNAc], the “Relative rate (%) Mouse ST8SiaVI” value in test [1] amounted to 88.7%.
For `CC(=O)N[C@H]1[C@H]([C@H](O)[C@H](O)CO)O[C@@](OC[C@H]2OC(O)[C@H](O)[C@@H](O)[C@H]2O)(C(=O)O)C[C@@H]1O` (stereo partly drawn) [6′-Sialylgalactose, NeuAcα2,6Gal], the “Relative rate (%) Mouse ST8SiaVI” value in test [1] came out at 2.0%.
Consider `O=C[C@H](O)[C@@H](O)[C@@H](O)[C@H](O)CO` [Galactose], for which the “Relative rate (%) Mouse ST8SiaVI” value in test [1] was 0%.
For the compound `CC(=O)N[C@H]1[C@H](O[C@H]2[C@@H](O)[C@@H](CO)O[C@@H](O[C@H]3[C@H](O)[C@@H](O)C(O)O[C@@H]3CO)[C@@H]2O)O[C@H](CO)[C@@H](O[C@@H]2O[C@H](CO)[C@H](O)[C@H](O)[C@H]2O)[C@@H]1O` (stereo partly drawn) [Lacto-N-neotetraose, Galβ1,4GlcNAcβ1,3Galβ1,4Glc], on human ST6Gal I, the “Relative rate (%) Human ST6Gal I” value came to 101.6%. In addition, in test [2], the “Relative rate (%) Mouse ST6Gal II” value was determined as 128.8%. In addition, in test [3], the “Relative rate (%) Human ST6Gal II” value is 86.2%.
On to `CC(=O)N[C@H]1C(O)O[C@H](CO)[C@H](O)[C@@H]1O` (stereo partly drawn) [N-Acetylgalactosamine], for which the “Relative rate (%) Mouse ST8SiaVI” value in test [1] came to 0%.
In the case of `CC(=O)N[C@H]1[C@H]([C@H](O)[C@H](O)CO)OC(O)(C(=O)O)C[C@@H]1O` (stereo partly drawn) [N-Acetylneuraminic acid], the “Relative rate (%) Mouse ST8SiaVI” value in test [1] is on record as 0%.
Take “Galβ1,3GalNAcβ1,4(NeuAcα2,8NeuAcα2,3)Galβ1,4Glcβ1-Cer [GD1b]”: the “Relative rate (%) Mouse ST8SiaVI” value in test [1] was 0%.
As for “NeuAcα2,3Galβ1,3GalNAcβ1,4Galβ1,4Glcβ1-Cer [GM1b]”, in test [1], the “activity of PA-mST8Sia VI on the substrate (in words)” value (“activity of PA-mST8Sia VI” for short) was “showed activity” and the “Relative rate (%) Mouse ST8SiaVI” value is 1.0%.
Turning to “NeuAcα2,3Galβ1,4GlcNAcβ1,3Galβ1,4Glcβ1-Cer [2,3-SPG]”, in test [1], the “activity of PA-mST8Sia VI” value is “showed activity” and the “Relative rate (%) Mouse ST8SiaVI” value was 3.5%.
NeuAcα2,3Galβ1-Cer [GM4]: in test [1], the “activity of PA-mST8Sia VI” value is “showed activity” and the “Relative rate (%) Mouse ST8SiaVI” value amounted to 1.0%.
Regarding “NeuAcα2,6Galβ1,3GalNAcβ1,4Galβ1,4Glcβ1-Cer [GSC-68]”, in test [1], the “activity of PA-mST8Sia VI” value was “showed activity” and the “Relative rate (%) Mouse ST8SiaVI” value is reported as 2.6%.
For “NeuAcα2,6Galβ1,4GlcNAcβ1,3Galβ1,4Glcβ1-Cer [2,6-SPG]”, in test [1], the “activity of PA-mST8Sia VI” value is given as “showed activity” and the “Relative rate (%) Mouse ST8SiaVI” value came to 0.98%.
